Experimental data published in patent publication US12091425B2 (AMGEN INC., priority 2016, dated 2024).

What was measured:
[1] = molecular target: T1, Mcl-1/Bim interaction, recombinant human Mcl-1 (171-327) (Homo sapiens, UniProt Q07820); test: Cell free Mcl-1: Bim Affinity Assay (Mcl-1 HTRF); type: binding; settings: TR-FRET, 0.1 nM Mcl-1 (171-327), 0.05 nM biotin-Bim (51-76)
T1 construct: made in house
Procedure, shortened: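 TR-FRET competition assay with biotinylated human Bim peptide (residues 51-76); reaction plates incubated overnight before reading. IC50 values came from duplicate data fitted to a four-parameter sigmoidal competition curve.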

[2] = test system: OPM-2 human multiple myeloma cell line; test: Cell Viability Assay (OPM-2 10 FBS); type: cell-based; settings: Homo sapiens, OPM-2 cells, 16 h, CellTiter-Glo
Procedure, shortened: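 OPM-2 myeloma cells, 3000/well in medium with 10% FBS, exposed to serially diluted compounds for 16 h at 37° C./5% CO2. Viability read by CellTiter-Glo luminescence; IC50 from 4-parameter logistic fit.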

T1 sequence (Q07820 171-327): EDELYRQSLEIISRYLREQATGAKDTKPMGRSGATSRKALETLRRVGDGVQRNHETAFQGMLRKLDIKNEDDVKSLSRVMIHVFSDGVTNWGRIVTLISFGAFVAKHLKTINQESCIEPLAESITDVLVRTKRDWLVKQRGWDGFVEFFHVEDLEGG

Structure (SMILES) | IC50 [1] [nM] | IC50 ([2]; OPM-2, 16 h) [nM] | IC50 [2] [nM]
C[C@@H]1[C@@H](C)C/C=C/[C@H](OCCNc2ccccn2)[C@@H]2CC[C@H]2CN2C[C@@]3(CCCc4cc(Cl)ccc43)COc3ccc(cc32)C(=O)NS1(=O)=O [Example 12, (1S,3′R,6′R,7′S,8′E,11′S,12′R)-6-chloro-11′,12′-dimethyl-7′-(2-(2-pyridinylamino)ethoxy)-3,4-dihydro-2H,15′H-spiro[naphthalene-1,22′-[20]oxa[13]thia[1,14]diazatetracyclo[14.7.2.0˜3,6˜.0˜19,24˜]pentacosa[8,16,18,24]tetraen]-15′-one 13′,13′-dioxide] | 3.37 | 404 | –
C[C@@H]1[C@@H](C)C/C=C/[C@H](OCCN(C)c2ccccn2)[C@@H]2CC[C@H]2CN2C[C@@]3(CCCc4cc(Cl)ccc43)COc3ccc(cc32)C(=O)NS1(=O)=O [Example 13, (1S,3′R,6′R,7′S,8′E,11′S,12′R)-6-chloro-11′,12′-dimethyl-7′-(2-(methyl(2-pyridinyl)amino)ethoxy)-3,4-dihydro-2H,15′H-spiro[naphthalene-1,22′-[20]oxa[13]thia[1,14]diazatetracyclo[14.7.2.0˜3,6˜.0˜19,24˜]pentacosa[8,16,18,24]tetraen]-15′-one 13′,13′-dioxide] | 0.685 | 312 | –
C[C@@H]1[C@@H](C)C/C=C/[C@H](OCCBr)[C@@H]2CC[C@H]2CN2C[C@@]3(CCCc4cc(Cl)ccc43)COc3ccc(cc32)C(=O)NS1(=O)=O [Example 14, (1S,3′R,6′R,7′S,8′E,11′S,12′R)-7′-(2-bromoethoxy)-6-chloro-11′,12′-dimethyl-3,4-dihydro-2H,15′H-spiro[naphthalene-1,22′-[20]oxa[13]thia[1,14]diazatetracyclo[14.7.2.0^3,6.0^19,24]pentacosa[8,16,18,24]tetraen]-15′-one 13′,13′-dioxide] | 3.92 | 1100 | –
C[C@@H]1[C@@H](C)C/C=C/[C@H](OCCS(N)(=O)=O)[C@@H]2CC[C@H]2CN2C[C@@]3(CCCc4cc(Cl)ccc43)COc3ccc(cc32)C(=O)NS1(=O)=O [Example 15, 2-(((1S,3′R,6′R,7′S,8′E,11′S,12′R)-6-chloro-11′,12′-dimethyl-13′,13′-dioxido-15′-oxo-3,4-dihydro-2H-spiro[naphthalene-1,22′-[20]oxa[13]thia[1,14]diazatetracyclo[14.7.2.0^3,6.0^19,24]pentacosa[8,16,18,24]tetraen]-7′-yl)oxy)ethanesulfonamide] | 0.393 | 870 | –
C[C@@H]1[C@@H](C)/C=C/C[C@H](OCCN2CCOCC2)[C@@H]2CC[C@H]2CN2C[C@@]3(CCCc4cc(Cl)ccc43)COc3ccc(cc32)C(=O)NS1(=O)=O [Example 16, (1S,3′R,6′R,7′S,9′E,11′S,12′R)-6-chloro-11′,12′-dimethyl-7′-(2-(4-morpholinyl)ethoxy)-3,4-dihydro-2H,15′H-spiro[naphthalene-1,22′-[20]oxa[13]thia[1,14]diazatetracyclo[14.7.2.0^3,6.0^19,24]pentacosa [9,16,18,24]tetraen]-15′-one 13′,13′-dioxide] | 2.21 | – | 3580
COCCOCCN1[C@@H](C)C/C=C/[C@H](O)[C@@H]2CC[C@H]2CN2C[C@@]3(CCCc4cc(Cl)ccc43)COc3ccc(cc32)C(=O)NS1(=O)=O [Example 25, (1S,3′R,6′R,7′S,8′E,11′S)-6-chloro-7′-hydroxy-12′-(2-(2-methoxyethoxy)ethyl)-11′-methyl-3,4-dihydro-2H,15′H-spiro[naphthalene-1,22′-[20]oxa[13]thia[1,12,14]triazatetracyclo[14.7.2.0^3,6.0^19,24]pentacosa[8,16,18,24]tetraen]-15′-one 13,13′-dioxide] | 0.246 | 166 | –
COCCN1[C@@H](C)C/C=C/[C@H](O)[C@@H]2CC[C@H]2CN2C[C@@]3(CCCc4cc(Cl)ccc43)COc3ccc(cc32)C(=O)NS1(=O)=O [Example 26, (1S,3′R,6′R,7′S,8′E,11′S)-6-chloro-7′-hydroxy-12′-(2-methoxyethyl)-11′-methyl-3,4-dihydro-2H,15′H-spiro[naphthalene-1,22′-[20]oxa[13]thia[1,12,14]triazatetracyclo[14.7.2.0^3,6.0^19,24]pentacosa[8,16,18,24]tetraen]-15′-one 13,13′-dioxide] | 0.205 | 312 | –
COCCN1[C@@H](C)C/C=C/[C@H](OC)[C@@H]2CC[C@H]2CN2C[C@@]3(CCCc4cc(Cl)ccc43)COc3ccc(cc32)C(=O)NS1(=O)=O [Example 27, (1S,3′R,6′R,7′S,8′E,11′S)-6-chloro-7′-methoxy-12′-(2-methoxyethyl)-11′-methyl-3,4-dihydro-2H,15′H-spiro[naphthalene-1,22′-[20]oxa[13]thia[1,12,14]triazatetracyclo[14.7.2.0^3,6.0^19,24]pentacosa[8,16,18,24]tetraen]-15′-one 13,13′-dioxide] | 0.422 | 970 | –

Continued, in another order:

IC50 [1] [nM] | IC50 ([2]; OPM-2, 16 h) [nM] | Structure (SMILES) | IC50 [2] [nM]
0.494 | 1220 | O=C1NS(=O)(=O)NCC/C=C/[C@H](O)[C@@H]2CC[C@H]2CN2C[C@@]3(CCCc4cc(Cl)ccc43)COc3ccc1cc32 [Example 19, (1S,3′R,6′R,7′S,8′E)-6-chloro-7′-hydroxy-3,4-dihydro-2H,15′H-spiro[naphthalene-1,22′-[20]oxa[13]thia[1,12,14]triazatetracyclo[14.7.2.0^3,6.0^19,24]pentacosa[8,16,18,24]tetraen]-15′-one 13,13′ dioxide] | –
0.85 | 818 | O=C1NS(=O)(=O)N(CC2CC2)CC/C=C/[C@H](O)[C@@H]2CC[C@H]2CN2C[C@@]3(CCCc4cc(Cl)ccc43)COc3ccc1cc32 [Example 20, (1S,3′R,6′R,7′S,8′E)-6-chloro-12′-(cyclopropylmethyl)-7′-hydroxy-3,4-dihydro-2H,15′H-spiro[naphthalene-1,22′-[20]oxa[13]thia[1,12,14]triazatetracyclo[14.7.2.0^3,6.0^19,24]pentacosa[8,16,18,24]tetraen]-15′-one 13,13′-dioxide] | –
0.806 | 1080 | O=C1NS(=O)(=O)N(CC2CCCO2)CCC=CC(O)C2CCC2CN2CC3(CCCc4cc(Cl)ccc43)COc3ccc1cc32 (stereo not shown) [Example 21] | –
0.37 | 276 | COCCOCCN1CC/C=C/[C@H](O)[C@@H]2CC[C@H]2CN2C[C@@]3(CCCc4cc(Cl)ccc43)COc3ccc(cc32)C(=O)NS1(=O)=O [Example 22, (1S,3′R,6′R,7′S,8′E)-6-chloro-7′-hydroxy-12′-(2-(2-methoxyethoxy)ethyl)-3,4-dihydro-2H,15′H-spiro[naphthalene-1,22′-[20]oxa[13]thia[1,12,14]triazatetracyclo[14.7.2.0^3,6.0^19,24]pentacosa[8,16,18,24]tetraen]-15′-one 13,13′-dioxide] | –
0.314 | 3210 | CNC(=O)CN1CC/C=C/[C@H](O)[C@@H]2CC[C@H]2CN2C[C@@]3(CCCc4cc(Cl)ccc43)COc3ccc(cc32)C(=O)NS1(=O)=O [Example 23, 2-((1S,3′R,6′R,7′S,8′E)-6-chloro-7′-hydroxy-13′,13′-dioxido-15′-oxo-3,4-dihydro-2H,12′H-spiro[naphthalene-1,22′-[20]oxa[13]thia[1,12,14]triazatetracyclo[14.7.2.0^3,6.0^19,24]pentacosa[8,16,18,24]tetraen]-12′-yl)-N-methylacetamide] | –
0.465 | 683 | CN(C)C(=O)CN1CC/C=C/[C@H](O)[C@@H]2CC[C@H]2CN2C[C@@]3(CCCc4cc(Cl)ccc43)COc3ccc(cc32)C(=O)NS1(=O)=O [Example 24, 2-((1S,3′R,6′R,7′S,8′E)-6-chloro-7′-hydroxy-13′,13′-dioxido-15′-oxo-3,4-dihydro-2H,12′H-spiro[naphthalene-1,22′-[20]oxa[13]thia[1,12,14]triazatetracyclo[14.7.2.0^3,6.0^19,24]pentacosa[8,16,18,24]tetraen]-12′-yl)-N,N-dimethylacetamide] | –
0.8 | 1700 | C[C@H]1C/C=C/[C@H](O)[C@@H]2CC[C@H]2CN2C[C@@]3(CCCc4cc(Cl)ccc43)COc3ccc(cc32)C(=O)NS(=O)(=O)N1CC1CC1 [Example 28, (1S,3′R,6′R,7′S,8′E,11′S)-6-chloro-12′-(cyclopropylmethyl)-7′-hydroxy-11′-methyl-3,4-dihydro-2H,15′H-spiro[naphthalene-1,22′-[20]oxa[13]thia[1,12,14]triazatetracyclo[14.7.2.0^3,6.0^19,24]pentacosa[8,16,18,24]tetraen]-15′-one 13,13′-dioxide] | –
0.492 | 621 | COCCN1CC/C=C/[C@H](O)[C@@H]2CC[C@H]2CN2C[C@@]3(CCCc4cc(Cl)ccc43)COc3ccc(cc32)C(=O)NS1(=O)=O [Example 31, (1S,3′R,6′R,7′S,8′E)-6-chloro-7′-hydroxy-12′-(2-methoxyethyl)-3,4-dihydro-2H,15′H-spiro[naphthalene-1,22′-[20]oxa[13]thia[1,12,14]triazatetracyclo[14.7.2.0^3,6.0^19,24]pentacosa[8,16,18,24]tetraen]-15′-one 13′,13′-dioxide] | –
0.623 | 546 | COC(=O)CN1CC/C=C/[C@H](O)[C@@H]2CC[C@H]2CN2C[C@@]3(CCCc4cc(Cl)ccc43)COc3ccc(cc32)C(=O)NS1(=O)=O [Example 32, methyl((1S,3′R,6′R,7′S,8′E)-6-chloro-7′-hydroxy-13′,13′-dioxido-15′-oxo-3,4-dihydro-2H,12′H-spiro[naphthalene-1,22′-[20]oxa[13]thia[1,12,14]triazatetracyclo[14.7.2.0^3,6.0^19,24]pentacosa[8,16,18,24]tetraen]-12′-yl)acetate] | –
